Measurements from patent publication US20230002352A1, “SULFONAMIDE DERIVATIVES AS CTPS1 INHIBITORS” (Step Pharma S.A.S., priority 2019, published 2023).
Where two headings read alike, the source gives them in different places.

Columns and labels:
[1] = molecular target: T1, human CTPS1 (Homo sapiens, UniProt P17812); assay: Human CTPS1 enzyme inhibition (ADP-Glo Max assay); assay type: biochemical; conditions: ADP-Glo Max assay, read-out: CTPS1 (Human CTPS1 Enzyme Inhibition data grouped by potency range, IC50)
T1 construct: purchased Proteros biostructures GmbH
T1 sequence (P17812 1-591): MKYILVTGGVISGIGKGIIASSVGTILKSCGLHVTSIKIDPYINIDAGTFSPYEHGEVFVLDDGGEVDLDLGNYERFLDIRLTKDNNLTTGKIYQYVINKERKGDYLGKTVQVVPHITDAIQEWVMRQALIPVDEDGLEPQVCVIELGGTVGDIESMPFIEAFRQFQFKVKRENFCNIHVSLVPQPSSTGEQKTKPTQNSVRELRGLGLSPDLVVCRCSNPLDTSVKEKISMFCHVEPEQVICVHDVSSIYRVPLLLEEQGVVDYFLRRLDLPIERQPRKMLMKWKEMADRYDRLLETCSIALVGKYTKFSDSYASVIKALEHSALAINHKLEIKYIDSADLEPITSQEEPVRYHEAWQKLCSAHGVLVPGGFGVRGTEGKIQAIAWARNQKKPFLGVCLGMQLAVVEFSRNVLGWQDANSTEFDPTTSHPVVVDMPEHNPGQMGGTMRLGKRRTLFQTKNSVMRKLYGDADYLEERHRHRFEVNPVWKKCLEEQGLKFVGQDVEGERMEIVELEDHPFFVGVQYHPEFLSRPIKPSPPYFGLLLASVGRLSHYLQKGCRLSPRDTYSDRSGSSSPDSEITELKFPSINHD
Outline: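 Full-length FLAG-His-tagged human CTPS1 and compound were preincubated 10 min at 25 °C in 50 mM Tris pH 8.0, 10 mM MgCl2, 0.01% Tween-20, 2 mM L-cysteine. Substrate mix: ATP 0.31 mM, GTP 0.034 mM, UTP 0.48 mM, glutamine 0.186 mM; linear-phase reaction at 25 °C. ADP-Glo Max luminescence; IC50 from inhibition curve.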

[2] = system: human CTPS1 versus CTPS2; assay: Human CTPS1 versus CTPS2 selectivity assessment by RapidFire/MS analysis; assay type: biochemical
Procedure: Biological Example 2—RapidFire/MS-Based Enzyme Selectivity Assays.
Human CTPS1 Versus CTPS2 Selectivity Assessment by RapidFire/MS Analysis.
The enzyme inhibitory activities against each target isoform of interest may be determined for the compounds of the invention using an optimised RapidFire high-throughput mass spectrometry (RF/MS) assay format. RF/MS assays for both human CTPS1 and CTPS2 may be performed in assay buffer consisting of 50 mM HEPES (Merck), 20 mM MgCl2, 5 mM KCl, 1 mM DTT, 0.01% Tween-20, pH to 8.0 accordingly. Human full-length active C-terminal FLAG-His-tag CTPS1 (UniProtKB-P17812, CTPS[1-591]-[…]) may be obtained from Proteros biostructures GmbH. Human full length active C-terminal FLAG-His-Avi tagged CTPS2 (UniProtKB-Q9NRF8, CTPS2 [1-586]-[…]) may be obtained from Harker Bio.
Human CTPS (1 or 2) protein may be prepared in 1× assay buffer to the final working protein concentration required for the reaction. A 2 uL volume per well of 2×CTPS (1 or 2) protein may be mixed with 40 nL of compound using acoustic (ECHO) delivery and incubated for 10 minutes at 25° C. Each isoform enzymatic reaction may be subsequently initiated by addition of 2 uL per well of a 2× substrate mix in assay buffer. For hCTPS1: ATP (0.3 mM), UTP (0.2 mM), GTP (0.07 mM) and L-glutamine (0.1 mM). For hCTPS2: ATP (0.1 mM), UTP (0.04 mM), GTP (0.03 mM) and L-glutamine (0.1 mM). Each mixture may be incubated for an appropriate amount of time per isoform within the determined linear phase of the reaction at 25° C. A 60 uL volume of stop solution (1% formic acid with 0.5 uM ^13C9-^15N3-CTP in H2O) may be added and the plate immediately heat-sealed and centrifuged for 10 minutes at 4,000 rpm. Following centrifugation, plates may be loaded onto the Agilent RapidFire microfluidic solid phase extraction system coupled to an AP14000 triple quadrupole mass spectrometer (RF/MS) for analysis.
In all cases, the enzyme converts UTP to CTP. Highly specific and sensitive multiple reaction monitoring (MRM) MS methods may be optimised for the detection of the enzymatic reaction product, CTP, and the stable isotope labelled product standard ^13C9-^15N3-CTP. Readout for data analysis may be calculated as the ratio between the peak area of the product CTP and the internal standard ^13C9-^15N3-CTP. For data reporting, the following equation may be used: […]
For each screening plate, the means of the negative (DMSO) and positive control values were used for the calculation of the respective assay window (S/B) and Z′ values. The median of the respective control values was used for calculation of percent inhibition according to the following equation: […]
Percentage inhibition was then plotted against compound concentration, and the 50% inhibitory concentration (IC50) was determined from the resultant concentration-response curve.
Fold selectivity between CTPS1 and CTPS2 was subsequently calculated according to the following equation: […]

SMILES	IC50 ([1]; Table 24) [µM]	Selectivity (fold selectivity between CTPS1 and CTPS2) ([2]; Table 27)	IC50 ([1]; Table 23) [µM]	Selectivity (fold selectivity between CTPS1 and CTPS2) ([2]; Table 26)
CCOc1cncc(-c2ccc(NC(=O)C3(c4ccnc(NS(=O)(=O)C5CC5)n4)CCC(N(C)C)CC3)nc2)n1 (single isomer, unassigned) [Example P229, 1-(2-(cyclopropanesulfonamido)pyrimidin-4-yl)-4-(dimethylamino)-N-(5-(6-ethoxypyrazin-2-yl)pyridin-2-yl)cyclohexane-1-carboxamide]	≤ 0.1	+++ (>60 fold (+++))		
CCOc1cncc(-c2ccc(NC(=O)C3(c4ccnc(NS(=O)(=O)C5CC5)n4)CCC(N(C)C)CC3)nc2)n1 (single isomer, unassigned) [Example P230, 1-(2-(cyclopropanesulfonamido)pyrimidin-4-yl)-4-(dimethylamino)-N-(5-(6-ethoxypyrazin-2-yl)pyridin-2-yl)cyclohexane-1-carboxamide]	≤ 0.1	+++ (>60 fold (+++))		
CCOc1cncc(-c2ccc(NC(=O)C3(c4ccnc(NS(=O)(=O)C5CC5)n4)CCCC3)cc2)n1 [Example P2, 1-(2-(Cyclopropanesulfonamido)pyrimidin-4-yl)-N-(4-(6-ethoxypyrazin-2-yl)phenyl)cyclopentanecarboxamide]			≤ 0.1	+++ (>60 fold (+++))
CC(C)Oc1cncc(-c2ccc(NC(=O)Cc3ccnc(NS(=O)(=O)C4CC4)n3)c(F)c2)n1 [Example P12]			≤ 0.1	++ (>30-60 fold (++))
O=C(Cc1ccnc(NS(=O)(=O)C2CC2)n1)Nc1ccc(-c2cccnc2)cc1 [Example P16]			0.1 to 1	++ (>30-60 fold (++))
CCOc1cncc(-c2ccc(NC(=O)Cc3ccnc(NS(=O)(=O)C4CC4)n3)cc2)n1 [Example P18, 2-(2-(Cyclopropanesulfonamido)pyrimidin-4-yl)-N-(4-(6-ethoxypyrazin-2-yl)phenyl)acetamide]			≤ 0.1	++ (>30-60 fold (++))
CC(C)Oc1cncc(-c2ccc(NC(=O)Cc3ccnc(NS(=O)(=O)C4CC4)n3)cc2)n1 [Example P21]			≤ 0.1	++ (>30-60 fold (++))
CCOc1cncc(-c2ccc(NC(=O)C(C)(C)c3ccnc(NS(=O)(=O)C4CC4)n3)nc2)n1 [Example P31]			≤ 0.1	+++ (>60 fold (+++))
CCOc1cncc(-c2ccc(NC(=O)C(C)(C)c3ccnc(NS(=O)(=O)C4CC4)n3)c(C#N)c2)n1 [Example P34]			≤ 0.1	+ (2-30 fold (+))
CCOc1cncc(-c2ccc(NC(=O)C(C)(C)c3ccnc(NS(=O)(=O)C4CC4)n3)c(F)c2)n1 [Example P38]			≤ 0.1	+ (2-30 fold (+))
CC(C)Oc1cncc(-c2ccc(NC(=O)C(C)(C)c3ccnc(NS(=O)(=O)C4CC4)n3)c(F)c2)n1 [Example P39]			≤ 0.1	+ (2-30 fold (+))
CC(C)(C(=O)Nc1ccc(-c2cccnc2)cc1)c1ccnc(NS(=O)(=O)C2CC2)n1 [Example P59]			1 to 10	+ (2-30 fold (+))
CCOc1cncc(-c2ccc(NC(=O)C(C)(C)c3nc(NS(=O)(=O)C4CC4)ncc3F)cc2)n1 [Example P68]			0.1 to 1	++ (>30-60 fold (++))
CCOc1cncc(-c2ccc(NC(=O)C(C)(C)c3nc(NS(=O)(=O)C4CC4)ncc3C)cc2)n1 [Example P70]			1 to 10	+ (2-30 fold (+))
CCOc1cncc(-c2ccc(NC(=O)C(C)(C)c3ccnc(NS(=O)(=O)CC)n3)cc2)n1 [Example P74]			0.1 to 1	++ (>30-60 fold (++))
CCOc1cncc(-c2ccc(NC(=O)C(C)(C)c3ccnc(NS(C)(=O)=O)n3)nc2)n1 [Example P76]			0.1 to 1	++ (>30-60 fold (++))
CCOc1cncc(-c2ccc(NC(=O)C3(c4ccnc(NS(=O)(=O)C5CC5)n4)CC3)cc2)n1 [Example P83]			≤ 0.1	+++ (>60 fold (+++))
CCOc1cncc(-c2ccc(NC(=O)C3(c4ccnc(NS(=O)(=O)C5CC5)n4)CCOCC3)nc2)n1 [Example P115, 4-(2-(Cyclopropanesulfonamido)pyrimidin-4-yl)-N-(5-(6-ethoxypyrazin-2-yl)pyridin-2-yl)tetrahydro-2H-pyran-4-carboxamide]			≤ 0.1	+++ (>60 fold (+++))
CCOc1cncc(-c2ccc(C(=O)NCc3ccnc(NS(=O)(=O)C4CC4)n3)cc2)n1 [Example P118]			≤ 0.1	+++ (>60 fold (+++))
CC(C)(C(=O)Nc1ccc(-c2cncc(C3CC3)n2)cn1)c1ccnc(NS(=O)(=O)C2CC2)n1 [Example P125]			0.1 to 1	++ (>30-60 fold (++))
CC(C)(C(=O)Nc1ccc(-c2cncc(C3CC3)n2)cc1F)c1ccnc(NS(=O)(=O)C2CC2)n1 [Example P128]			0.1 to 1	+ (2-30 fold (+))
CC(C)c1cncc(-c2ccc(NC(=O)C(C)(C)c3ccnc(NS(=O)(=O)C4CC4)n3)cc2)n1 [Example P132]			0.1 to 1	++ (>30-60 fold (++))
CCOc1cncc(-c2ccc(NC(=O)C3(c4ccnc(NS(=O)(=O)C5CC5)n4)CCCC3)nc2)n1 [Example P136]			≤ 0.1	+++ (>60 fold (+++))
CCOc1cncc(-c2ccc(NC(=O)C3(c4ccnc(NS(=O)(=O)C5CC5)n4)CCOCC3)c(F)c2)n1 [Example P143]			≤ 0.1	+++ (>60 fold (+++))
CCOc1cncc(-c2ccc(NC(=O)C(CCOC)c3ccnc(NS(=O)(=O)C4CC4)n3)nc2)n1 (centres unmarked) [Example P145]			≤ 0.1	+++ (>60 fold (+++))
